Reference: patent publication US8372967B2, “Compounds and methods for modulating expression of GCCR” (Isis Pharmaceuticals, Inc., priority 2006, dated 2013)
Strand notation (5' to 3'): a small letter for the sugar, then the base; units joined by * are phosphorothioate-linked, units joined directly phosphodiester-linked; [ ] holds rarer units or linkages, { } end groups; capitals alone tell only the bases. e = 2'-O-(2-methoxyethyl) (MOE); [5mC] = 5-methylcytosine; d = 2'-deoxy (DNA)

Columns and labels:
rat DGAT2 mRNA = assay: Dose-dependent inhibition of DGAT2 in A10 cells (Tables 82, 83); type: cell-based
Protocol: Additional short antisense compounds targeted to DGAT2 mRNA were tested in vitro in a dose-response experiment. A10 cells were prepared as described above and treated with 6.25, 12.5, 25.0, 50.0, 100.0, and 200.0 nM short antisense compounds to determine if DGAT2 inhibition occurs in a dose-dependent manner. […] Results are presented as percent inhibition, relative to untreated control cells.
Additional short antisense compounds targeted to DGAT2 mRNA were tested in vitro. A10 cells were prepared as described above and treated with 0.62, 1.85, 5.56, 16.67, 50.0, and 150.0 nM short antisense compounds to determine if DGAT2 inhibition occurs in a dose-dependent manner. DGAT2 mRNA was measured using quantitative real-time PCR, as described herein. […] Results are presented as percent inhibition of rat DGAT2, relative to untreated control cells.

PCSK9 mRNA = type: cell-based, human; conditions: Hep3B cells, 100 nM, relative to untreated control cells; for % Inhib: 0 = no reduction observed
Protocol: When cells reached appropriate confluency, they were treated with oligonucleotide using LIPOFECTIN® as described. […] Cells were treated and data were obtained in duplicate or triplicate. […] Cells were harvested 16-24 hours after oligonucleotide treatment.
Prior to quantitative PCR analysis, primer-probe sets specific to the target gene being measured were evaluated for their ability to be “multiplexed” with a GAPDH amplification reaction. After isolation the RNA is subjected to sequential reverse transcriptase (RT) reaction and real-time PCR, both of which are performed in the same well. RT and PCR reagents were obtained from Invitrogen Life Technologies (Carlsbad, Calif.). […] The RT reaction was carried out by incubation for 30 minutes at 48° C. Following a 10 minute incubation at 95° C. to activate the PLATIN 9M® Taq, 40 cycles of a two-step PCR protocol were carried out: 95° C. for 15 seconds (denaturation) followed by 60° C. for 1.5 minutes (annealing/extension).
170 μL of RiboGreen® working reagent (RiboGreen® reagent diluted 1:350 in 10 mM Tris-HCl, 1 mM EDTA, pH 7.5) was pipetted into a 96-well plate containing 30 μL purified cellular RNA. The plate was read in a CytoFluor® 4000 (PE Applied Biosystems) with excitation at 485 nm and emission at 530 nm.
Short antisense compounds targeted to a PCSK9 nucleic acid were tested for their effects on PCSK9 mRNA in vitro. The Isis No, gapmer motif and SEQ ID NO of each short antisense compound are shown again in Table 75. Cultured Hep3B cells were treated with 100 nM of short antisense compound. 5-10-5 MOE gapmers targeted to a PCSK9 nucleic acid were used as positive controls. After the treatment period, RNA was isolated from the cells and PCSK9 mRNA levels were measured by quantitative real-time PCR, as described herein. PCSK9 mRNA levels were adjusted according to total RNA content as measured by RIBOGREEN®. Results are presented in Table 75 as percent inhibition of PCSK9 (% Inhib), relative to untreated control cells.

| Substance | % Inhib (PCSK9 mRNA) [%] | further results |
| --- | --- | --- |
| 372562 (antisense eG*eT*d[5mC]*dT*dT*dG*dG*dA*dG*dG*dG*d[5mC]*e[5mC]*eG) [compound 372562] | – | percent inhibition of DGAT2 (rat DGAT2 mRNA; 6.25 nM (Table 82)): 0%; percent inhibition of DGAT2 (rat DGAT2 mRNA; 12.5 nM (Table 82)): 0%; percent inhibition of DGAT2 (rat DGAT2 mRNA; 50.0 nM (Table 82)): 36%; percent inhibition of DGAT2 (rat DGAT2 mRNA; 100.0 nM (Table 82)): 48%; percent inhibition of DGAT2 (rat DGAT2 mRNA; 200.0 nM (Table 82)): 75% |
| 372568 (antisense eG*eA*d[5mC]*dA*d[5mC]*dT*dG*d[5mC]*dA*dG*dG*d[5mC]*e[5mC]*eA) [compound 372568] | – | percent inhibition of DGAT2 (rat DGAT2 mRNA; 6.25 nM (Table 82)): 0%; percent inhibition of DGAT2 (rat DGAT2 mRNA; 12.5 nM (Table 82)): 0%; percent inhibition of DGAT2 (rat DGAT2 mRNA; 50.0 nM (Table 82)): 26%; percent inhibition of DGAT2 (rat DGAT2 mRNA; 100.0 nM (Table 82)): 72%; percent inhibition of DGAT2 (rat DGAT2 mRNA; 200.0 nM (Table 82)): 69% |
| 400297 (antisense eA*eT*dG*dG*dG*dG*d[5mC]*dA*dA*d[5mC]*dT*dT*e[5mC]*eA) [compound 400297] | 0 | – |
| 400298 (antisense e[5mC]*eA*dT*dG*dG*dG*dG*d[5mC]*dA*dA*d[5mC]*dT*eT*e[5mC]) [compound 400298] | 0 | – |
| 400299 (antisense eA*e[5mC]*dA*dT*dG*dG*dG*dG*d[5mC]*dA*dA*d[5mC]*eT*eT) [compound 400299] | 0 | – |
| 400300 (antisense eG*eG*dG*dA*dT*dG*d[5mC]*dT*d[5mC]*dT*dG*dG*eG*e[5mC]) [compound 400300] | 9 | – |
| 400301 (antisense e[5mC]*eG*d[5mC]*dT*d[5mC]*d[5mC]*dA*dG*dG*dT*dT*d[5mC]*e[5mC]*eA) [compound 400301] | 27 | % Inhibition Range (PCSK9 mRNA): 20-30% |
| 400302 (antisense eG*eA*dT*dA*d[5mC]*dA*d[5mC]*d[5mC]*dT*d[5mC]*d[5mC]*dA*e[5mC]*e[5mC]) [compound 400302] | 0 | – |
| 400303 (antisense eA*eG*dA*dT*dA*d[5mC]*dA*d[5mC]*d[5mC]*dT*d[5mC]*d[5mC]*eA*e[5mC]) [compound 400303] | 0 | – |
| 400304 (antisense eG*eA*dG*dA*dT*dA*d[5mC]*dA*d[5mC]*d[5mC]*dT*d[5mC]*e[5mC]*eA) [compound 400304] | 11 | % Inhibition Range (PCSK9 mRNA): 10-20% |
| 400305 (antisense eG*e[5mC]*d[5mC]*dT*dG*dT*d[5mC]*dT*dG*dT*dG*dG*eA*eA) [compound 400305] | 38 | % Inhibition Range (PCSK9 mRNA): 30-40% |
| 400306 (antisense e[5mC]*eT*dG*dT*d[5mC]*dA*d[5mC]*dA*d[5mC]*dT*dT*dG*e[5mC]*eT) [compound 400306] | 40 | % Inhibition Range (PCSK9 mRNA): 40-50% |
| 400310 (antisense eT*e[5mC]*d[5mC]*d[5mC]*dG*dG*d[5mC]*d[5mC]*dG*d[5mC]*dT*dG*eA*e[5mC]) [compound 400310] | 8 | – |
| 400311 (antisense eA*eT*d[5mC]*d[5mC]*d[5mC]*dG*dG*d[5mC]*d[5mC]*dG*d[5mC]*dT*eG*eA) [compound 400311] | 18 | % Inhibition Range (PCSK9 mRNA): 10-20% |
| 400312 (antisense e[5mC]*eA*dT*d[5mC]*d[5mC]*d[5mC]*dG*dG*d[5mC]*d[5mC]*dG*d[5mC]*eT*eG) [compound 400312] | 28 | % Inhibition Range (PCSK9 mRNA): 20-30% |
| 400313 (antisense eG*e[5mC]*dA*dT*d[5mC]*d[5mC]*d[5mC]*dG*dG*d[5mC]*d[5mC]*dG*e[5mC]*eT) [compound 400313] | 10 | % Inhibition Range (PCSK9 mRNA): 10-20% |
| 400314 (antisense eG*eT*dG*d[5mC]*d[5mC]*d[5mC]*dT*dT*d[5mC]*d[5mC]*d[5mC]*dT*eT*eG) [compound 400314] | 26 | % Inhibition Range (PCSK9 mRNA): 20-30% |
| 400315 (antisense eA*eT*dG*dA*dG*dG*dG*dT*dG*d[5mC]*d[5mC]*dG*e[5mC]*eT) [compound 400315] | 0 | – |
| 400316 (antisense eT*eA*dT*dG*dA*dG*dG*dG*dT*dG*d[5mC]*d[5mC]*eG*e[5mC]) [compound 400316] | 8 | – |

| Substance | % Inhib (PCSK9 mRNA) [%] | further results |
| --- | --- | --- |
| 400317 (antisense e[5mC]*eT*dA*dT*dG*dA*dG*dG*dG*dT*dG*d[5mC]*e[5mC]*eG) [compound 400317] | 7 | – |
| 400318 (antisense e[5mC]*e[5mC]*dT*dA*dT*dG*dA*dG*dG*dG*dT*dG*e[5mC]*e[5mC]) [compound 400318] | 26 | % Inhibition Range (PCSK9 mRNA): 20-30% |
| 400319 (antisense e[5mC]*eG*dA*dA*dT*dA*dA*dA*d[5mC]*dT*d[5mC]*d[5mC]*eA*eG) [compound 400319] | 0 | – |
| 400320 (antisense e[5mC]*e[5mC]*dG*dA*dA*dT*dA*dA*dA*d[5mC]*dT*d[5mC]*e[5mC]*eA) [compound 400320] | 0 | – |
| 400321 (antisense eT*e[5mC]*d[5mC]*dG*dA*dA*dT*dA*dA*dA*d[5mC]*dT*e[5mC]*e[5mC]) [compound 400321] | 0 | – |
| 400322 (antisense eT*eT*d[5mC]*d[5mC]*dG*dA*dA*dT*dA*dA*dA*d[5mC]*eT*e[5mC]) [compound 400322] | 0 | – |
| 400323 (antisense eG*e[5mC]*d[5mC]*dA*dG*dG*dG*dG*d[5mC]*dA*dG*d[5mC]*eA*eG) [compound 400323] | 0 | – |
| 400324 (antisense eG*eA*dG*dT*dA*dG*dA*dG*dG*d[5mC]*dA*dG*eG*e[5mC]) [compound 400324] | 7 | – |
| 400325 (antisense e[5mC]*e[5mC]*d[5mC]*d[5mC]*dA*dA*dA*dG*dT*d[5mC]*d[5mC]*d[5mC]*e[5mC]*eA) [compound 400325] | 4 | – |
| 400326 (antisense eT*e[5mC]*d[5mC]*d[5mC]*d[5mC]*dA*dA*dA*dG*dT*d[5mC]*d[5mC]*e[5mC]*e[5mC]) [compound 400326] | 0 | – |
| 400328 (antisense eA*e[5mC]*dG*dT*dG*dG*dG*d[5mC]*dA*dG*d[5mC]*dA*eG*e[5mC]) [compound 400328] | 13 | % Inhibition Range (PCSK9 mRNA): 10-20% |
| 400329 (antisense e[5mC]*eA*d[5mC]*dG*dT*dG*dG*dG*d[5mC]*dA*dG*d[5mC]*eA*eG) [compound 400329] | 14 | % Inhibition Range (PCSK9 mRNA): 10-20% |
| 400332 (antisense e[5mC]*eA*dG*dG*dG*dA*dA*d[5mC]*d[5mC]*dA*dG*dG*e[5mC]*e[5mC]) [compound 400332] | 0 | – |
| 400333 (antisense eT*e[5mC]*dA*dG*dG*dG*dA*dA*d[5mC]*d[5mC]*dA*dG*eG*e[5mC]) [compound 400333] | 0 | – |
| 400334 (antisense e[5mC]*eT*d[5mC]*dA*dG*dG*dG*dA*dA*d[5mC]*d[5mC]*dA*eG*eG) [compound 400334] | 0 | – |
| 400335 (antisense e[5mC]*e[5mC]*dT*d[5mC]*dA*dG*dG*dG*dA*dA*d[5mC]*d[5mC]*eA*eG) [compound 400335] | 0 | – |
| 400336 (antisense eT*e[5mC]*d[5mC]*dT*d[5mC]*dA*dG*dG*dG*dA*dA*d[5mC]*e[5mC]*eA) [compound 400336] | 4 | – |
| 400337 (antisense eG*eT*d[5mC]*d[5mC]*dT*d[5mC]*dA*dG*dG*dG*dA*dA*e[5mC]*e[5mC]) [compound 400337] | 0 | – |
| 400338 (antisense eG*eG*dT*d[5mC]*d[5mC]*dT*d[5mC]*dA*dG*dG*dG*dA*eA*e[5mC]) [compound 400338] | 9 | – |
